Common to all, as to assay: DTP human tumour cell line panel, 48 h
The subject of assay [1] is RPMI-8226 leukemia.
Assay [2] deals with HOP-62 NSCLC.
Assay [3] deals with K-562 leukemia.
The test system of assay [4] is MOLT-4 leukemia.
The subject of assay [5] is CCRF-CEM leukemia.
The subject of assay [6] is HOP-92 NSCLC.
The test system of assay [7] is MALME-3M melanoma.
The subject of assay [8] is ACHN renal.
The subject of assay [9] is U251 CNS.
In assay [10] the test system is SF-295 CNS.
In assay [11] the test system is HL-60(TB) leukemia.
Assay [12] has as its system RXF 393 renal.
Assay [13] deals with HT29 colon.
The subject of assay [14] is TK-10 renal.

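A five-concentration, 48-hour dose response in 96-well plates underlies each endpoint, interpolated linearly between surrounding concentrations. At the TGI there is no net growth.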

Take `Cc1cc(S(=O)(=O)Nc2n[nH]c(N)n2)c(SCC(=O)O)cc1Cl`: the concentration for total growth inhibition (TGI) in assay [1], in [2], in assay [3], in assay [4], in assay [5] and in assay [6] was above 10 µM throughout. Also, the TGI in [7], in assay [8], in [9], in assay [10], in assay [11] and in assay [12] was above 10 µM in each case. The concentration for total growth inhibition (TGI) in [13] and in assay [14] was above 10 µM throughout.
In the case of `CN(C)CCC(=O)c1ccccc1`, the TGI in [1] is above 100 µM; in [2], above 100 µM; in assay [3], 85.4 µM; in assay [4] it was 59.9 µM; in assay [5], 62.4 µM; in [6] it was 44.6 µM. Also, the TGI in assay [7] is 24.1 µM; in assay [8], above 69.2 µM; in assay [9], above 69.4 µM; in assay [10], above 100 µM; in [11] it was above 64.2 µM; in [12], 61.6 µM. Besides, the TGI in assay [13] is above 67.3 µM; in [14], above 68.4 µM.
As to `CC(CO)(CO)N1C(=O)C2C3C=CC(C3)C2C1=O` (stereo not given), the TGI in assay [1], in [2], in [3], in assay [4], in assay [5] and in assay [6] was above 100 µM each time. For the same molecule, the TGI in [7], in assay [8], in assay [9], in assay [10], in assay [11] and in assay [12] was above 100 µM each time. For the same molecule, the total growth inhibition concentration (TGI) in assay [13] and in assay [14] was above 100 µM in each case.
As for `O=C(Oc1ccccn1)c1cc2cc(CCl)ccc2oc1=O`, the TGI in assay [1] was above 100 µM; in assay [2], 52.9 µM; in [3], above 100 µM; in assay [4], above 100 µM; in assay [5] it was above 100 µM; in assay [6], 39.3 µM. Moreover, the TGI is 31.3 µM in assay [7]; above 100 µM in assay [8]; 34.7 µM in assay [9]; above 100 µM in [10]; above 100 µM in assay [11]; 41.3 µM in assay [12]. Further, the TGI in assay [13] and in [14] was above 100 µM throughout.
As for `O=C(Nc1nc(C23CC4CC(CC(C4)C2)C3)cs1)c1cc2ccc(O)cc2oc1=O`, the TGI in assay [1] is 32.6 µM; in [2] it was 36.8 µM; in [3], 68.2 µM; in assay [4] it was 38.1 µM; in assay [5] it was 68.1 µM; in assay [6] it was 15.3 µM. The TGI came out at 34.5 µM in assay [7]; 64.3 µM in assay [8]; 28.7 µM in [9]; 48.4 µM in assay [10]; 34.6 µM in assay [11]; 51.2 µM in [12]. Besides, the TGI in assay [13] is 27.4 µM; in [14], above 100 µM.
Take `CCOC1OC(=O)c2cc3ccc4c(c3c(-c3ccc5c(c3)OCO5)c21)OCO4` (stereo not given): the TGI in assay [1], in assay [2], in [3], in assay [4], in assay [5] and in assay [6] was above 100 µM each time. Besides, the total growth inhibition concentration (TGI) in assay [7] is above 100 µM; in assay [8], above 100 µM; in assay [9] it was above 100 µM; in [10], 8.14 µM; in assay [11], above 100 µM; in [12] it was 97.9 µM. Also, the TGI is above 100 µM in assay [13] and above 77.9 µM in [14].
As for `Cc1nn(-c2ccccc2)c2c1C(c1ccc(Cl)cc1)NC(=S)N2` (stereo not given), the TGI was 48.7 µM in assay [1]; 80.1 µM in assay [2]; above 100 µM in [3]; above 100 µM in [4]; 72.8 µM in assay [5]; 35.2 µM in [6]. The total growth inhibition concentration (TGI) in assay [7] came to 93.9 µM; in assay [8], 38.4 µM; in assay [9], 48.1 µM; in [10], 62.3 µM; in [11], 95.8 µM; in [12], 35.3 µM. The TGI in [13] was above 100 µM; in [14], 43.6 µM.
With `CCCCCCc1cc2cc(C(=O)Nc3ccccc3)c(=N)oc2cc1O`, the TGI was above 100 µM in assay [1]; 11.8 µM in assay [2]; above 100 µM in assay [3]; 8.79 µM in assay [4]; above 37.9 µM in [5]; above 100 µM in [6]. The total growth inhibition concentration (TGI) in assay [7] was 5.6 µM; in [8], above 100 µM; in assay [9], above 33.6 µM; in assay [10] it was above 100 µM; in [11], above 100 µM; in assay [12], above 100 µM. The total growth inhibition concentration (TGI) in assay [13] was above 32.1 µM; in assay [14] it was above 100 µM.
For `CC(O)C1(CNc2cc(Cl)nc(N)n2)CCC1` (stereo not given), the concentration for total growth inhibition (TGI) in assay [1], in [2], in [3], in assay [4], in assay [5] and in assay [6] was above 100 µM each time. Also, the TGI in assay [7], in assay [8], in assay [9], in assay [10], in assay [11] and in assay [12] was above 100 µM in each case. For the same molecule, the TGI in assay [13] and in assay [14] was above 100 µM throughout.
In the case of `O=[N+]([O-])/C(C(Cl)=C(Cl)Cl)=C(/Cl)Sc1ccccc1`, the TGI came out at 1.15 µM in assay [1]; 9.33 µM in assay [2]; 2.4 µM in assay [3]; 1.23 µM in assay [4]; 0.435 µM in assay [5]; 3.85 µM in [6]. For the same molecule, the concentration for total growth inhibition (TGI) in assay [7] turned out to be 3.03 µM; in [8], 3.93 µM; in [9] it was 5.04 µM; in [10] it was 37.6 µM; in assay [11] it was 0.318 µM; in [12] it was 9.86 µM. Besides, the concentration for total growth inhibition (TGI) in [13] turned out to be 6.12 µM; in assay [14] it was 5.9 µM.

By TGI is commonly meant the concentration giving total growth inhibition. Lower therefore signals more potent growth arrest.

The values above are taken from PubChem BioAssay (NCI).
